The subject of this test is human monocytic cell line U937. Description: Human U937 cellular necroptosis assay. Type of test: cell-based. The settings on record: U-937; U937 cells stimulated with 25 ng/mL human TNFalpha and 25 μM z-VAD-FMK; 22 hr; viability by Cell Titer-Glo 2.0; read-out: hU937 IC50. An outline of the steps: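 U937 cells (5000/well) driven to necroptosis by 25 ng/mL human TNFalpha plus 25 μM z-VAD-FMK alongside 1:3-diluted compounds, 22 hr at 37° C, 5% CO2. Viability by CellTiter-Glo luminescence; IC50 from four-parameter logistic fit.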
Background: In ATP-based viability assays light output follows the ATP content of the culture.
Broadly, the IC50 is the concentration needed to halve the response being measured. With `Cc1cnc(C(=O)N[C@H]2COc3ccc(CN4CCn5ncnc5C4)cc3N(C)C2=O)nc1-c1ccccc1F` [Example 156, (S)-N-(7-((5,6-dihydro-[1,2,4]triazolo[1,5-a]pyrazin-7(8H)-yl)methyl)-5-methyl-4-oxo-2,3,4,5-tetrahydrobenzo[b]-[1,4]oxazepin-3-yl)-4-(2-fluorophenyl)-5-methylpyrimidine-2-carboxamide], the IC50 worked out at 0.0171 µM. As for `Cc1cnc(C(=O)N[C@H]2COc3cc(Cl)cnc3N(C)C2=O)nc1-c1cc(C(F)(F)F)cs1` [Example 157, (S)-N-(8-chloro-5-methyl-4-oxo-2,3,4,5-tetrahydro-pyrido[3,2-b][1,4]oxazepin-3-yl)-5-methyl-4-(4-(trifluoromethyl)thiophen-2-yl)-pyrimidine-2-carboxamide], the figure is 0.423 µM. Consider `Cc1cnc(C(=O)N[C@H]2COc3cc(Cl)cnc3N(C)C2=O)nc1C1CCC(F)(F)CO1` (stereo partly drawn) [Example 158, N-((S)-8-chloro-5-methyl-4-oxo-2,3,4,5-tetrahydro-pyrido[3,2-b][1,4]oxazepin-3-yl)-4-(5,5-difluorotetrahydro-2H-pyran-2-yl)-5-methylpyrimidine-2-carboxamide], for which the half-inhibitory concentration (IC50) was found to be 0.149 µM. On to `Cc1cnc(C(=O)N[C@H]2COc3ccc(Oc4cnn(C)c4)cc3N(C)C2=O)nc1-c1ccccc1F` [Example 159, (S)-4-(2-fluorophenyl)-5-methyl-N-(5-methyl-7-((1-methyl-1H-pyrazol-4-yl)oxy)-4-oxo-2,3,4,5-tetrahydrobenzo[b]-[1,4]oxazepin-3-yl)pyrimidine-2-carboxamide], for which the IC50 came to 0.009 µM. Turning to `Cc1cnc(C(=O)N[C@H]2COc3ccc(Oc4cnn(C)c4)cc3N(C)C2=O)nc1-c1ccc(C#N)cc1` [Example 160, (S)-4-(4-cyanophenyl)-5-methyl-N-(5-methyl-7-((1-methyl-1H-pyrazol-4-yl)oxy)-4-oxo-2,3,4,5-tetrahydrobenzo[b]-[1,4]oxazepin-3-yl)pyrimidine-2-carboxamide], the half-inhibitory concentration (IC50) amounted to 0.024 µM.

As to `CN1C(=O)[C@@H](NC(=O)c2ncc(Cl)c(-c3cc(F)ccc3F)n2)COc2ccc(Oc3cnn(C)c3)cc21` [Example 161, (S)-5-chloro-4-(2,5-difluorophenyl)-N-(5-methyl-7-((1-methyl-1H-pyrazol-4-yl)oxy)-4-oxo-2,3,4,5-tetrahydrobenzo[b]-[1,4]oxazepin-3-yl)pyrimidine-2-carboxamide], the IC50 came to 0.009 µM. `CN1C(=O)[C@@H](NC(=O)c2ncc(CN)c(-c3ccccc3)n2)COc2cc(Cl)cnc21` [Example 162, (S)-5-(aminomethyl)-N-(8-chloro-5-methyl-4-oxo-2,3,4,5-tetrahydropyrido[3,2-b][1,4]oxazepin-3-yl)-4-phenylpyrimidine-2-carboxamide]: the 50% inhibitory concentration (IC50) stood at 0.122 µM. To `CN1C(=O)[C@@H](NC(=O)c2ncc(Cl)c([C@@H]3COCCO3)n2)COc2cc(Cl)cnc21` [Example 163a, 5-chloro-N—((S)-8-chloro-5-methyl-4-oxo-2,3,4,5-tetrahydropyrido[3,2-b][1,4]oxazepin-3-yl)-4-((R)-1,4-dioxan-2-yl)pyrimidine-2-carboxamide] belongs 0.172 µM; to `Cc1cnc(C(=O)N[C@H]2COc3cc(Cl)cnc3N(C)C2=O)nc1C1COCCO1` (stereo partly drawn) [Example 164, N—((S)-8-chloro-5-methyl-4-oxo-2,3,4,5-tetrahydropyrido[3,2-b][1,4]oxazepin-3-yl)-4-(1,4-dioxan-2-yl)-5-methylpyrimidine-2-carboxamide], 0.357 µM; to `CN1C(=O)[C@@H](NC(=O)c2ncc(Cl)c(-c3cc(F)c(CO)c(F)c3)n2)COc2cc(F)cnc21` [Example 166, (S)-5-chloro-4-(3,5-difluoro-4-(hydroxymethyl)phenyl)-N-(8-fluoro-5-methyl-4-oxo-2,3,4,5-tetrahydropyrido[3,2-b][1,4]oxazepin-3-yl)pyrimidine-2-carboxamide], 0.196 µM.

In the case of `O=C(N[C@H]1COc2cc(F)cnc2NC1=O)c1ncc(Cl)c(-c2ccc(F)cc2F)n1` [Example 167, (S)-5-chloro-4-(2,4-difluorophenyl)-N-(8-fluoro-4-oxo-2,3,4,5-tetrahydropyrido[3,2-b][1,4]oxazepin-3-yl)pyrimidine-2-carboxamide], the IC50 was determined as 0.464 µM. With `[2H]C([2H])([2H])N1C(=O)[C@@H](NC(=O)c2ncc(Cl)c(-c3cccc(F)c3F)n2)COc2cc(F)cnc21` [Example 168, (S)-5-chloro-4-(2,3-difluorophenyl)-N-(8-fluoro-5-(methyl-d3)-4-oxo-2,3,4,5-tetrahydropyrido[3,2-b][1,4]oxazepin-3-yl)pyrimidine-2-carboxamide], the IC50 was found to be 0.0452 µM. `[2H]C([2H])([2H])c1cnc(C(=O)N[C@H]2COc3cc(F)cnc3N(C([2H])([2H])[2H])C2=O)nc1-c1ccccc1F` [Example 169, (S)—N-(8-fluoro-5-(methyl-d3)-4-oxo-2,3,4,5-tetrahydropyrido[3,2-b][1,4]oxazepin-3-yl)-4-(2-fluorophenyl)-5-(methyl-d3)pyrimidine-2-carboxamide]: the IC50 turned out to be 0.0209 µM. Consider `[2H]C([2H])([2H])N1C(=O)[C@@H](NC(=O)c2ncc(C)c(-c3ccccc3F)n2)COc2cc(F)cnc21` [Example 170, (S)—N-(8-fluoro-5-(methyl-d3)-4-oxo-2,3,4,5-tetrahydropyrido[3,2-b][1,4]oxazepin-3-yl)-4-(2-fluorophenyl)-5-methylpyrimidine-2-carboxamide], for which the IC50 stood at 0.0158 µM. For `Cc1cnc(C(=O)N[C@H]2COc3ccc(S(C)(=O)=O)cc3N(C)C2=O)nc1-c1ccccc1F` [Example 171, (S)-4-(2-fluorophenyl)-5-methyl-N-(5-methyl-7-(methylsulfonyl)-4-oxo-2,3,4,5-tetrahydrobenzo[b][1,4]oxazepin-3-yl)pyrimidine-2-carboxamide], the half-maximal inhibitory concentration (IC50) was determined as 0.12 µM. Regarding `Cc1cnc(C(=O)N[C@H]2COc3cc(Cl)cnc3N(C)C2=O)nc1C1CC(F)(F)CCN1` (stereo partly drawn) [Example 172, N—((S)-8-chloro-5-methyl-4-oxo-2,3,4,5-tetrahydropyrido[3,2-b][1,4]oxazepin-3-yl)-4-(4,4-difluoropiperidin-2-yl)-5-methylpyrimidine-2-carboxamide], the IC50 came out at 0.175 µM.

For the origin of these results see US12565490B2, “Inhibitors of Receptor Interacting Protein Kinase I for the treatment of disease” (Board of Regents, The University of Texas System, priority 2020, dated 2026).
